Experimental data published in patent US10793557B2, “Sting agonist compounds” (Merck Sharp & Dohme Corp., priority 2018, dated 2020).

Key:
full-length WT STING = target: T1, full-length WT STING (Homo sapiens, UniProt Q86WV6, H232R); test: 3H-cGAMP filtration binding assay (WT STING); details: for EC50: competition with tritiated cGAMP, WT STING membrane
T1 construct: AviTag (after gg linker) (C); HRV3C cleavage site (after gs linker) (C); HIS8 (C); made in house; host or cells: Trichoplusia ni (Hi-Five) insect cells infected with baculovirus (virus generated and amplified in Sf21 cells); used as a washed membrane preparation
Summary of the method: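 Competitive filtration binding of [3H]cGAMP (16 nM working stock) to T. ni membranes overexpressing full-length WT human STING, 60 min at RT in PBS. Bound radioactivity counted after GF/B filtration; 10-point 1:3 titration, EC50 from 4-parameter fit after control normalisation.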

[1] = tested on: secretion of interferon-beta from THP1 cells; test: IFN-β secretion in THP1 cell culture (5 h); format: cell-based; details: Homo sapiens, THP-1, 5 h, 30 uM cGAMP = 100%; for activation at 30 µM: compound at 30 μM, read-out: % Effect at 30 μM relative to 2′3′-cGAMP; for activation at 3 µM: compound at 3 uM, read-out: % Effect relative to 2′3′-cGAMP (@ 3 uM)
Summary of the method: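 Thawed THP1 cells (0.8×10^6/mL, RPMI with 0.5% FBS) exposed to compounds 1.5–30000 nM (0.3% DMSO) for 5 h at 37 °C. Supernatant IFN-β quantified by AlphaLISA. Percent effect normalised to 30 uM cGAMP and DMSO controls; EC50 from 4-parameter fit.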

full-length HAQ STING = target: T2, full-length HAQ STING (Homo sapiens, UniProt Q86WV6, G230A/H232R/R293Q/R71H); test: 3H-cGAMP filtration binding assay (HAQ STING); details: for EC50: competition with tritiated cGAMP, HAQ STING membrane
T2 construct: AviTag (after GG linker) (C); HRV3C cleavage site (after GS linker) (C); HIS8 (C); made in house; host or cells: Trichoplusia ni (Hi-Five) insect cells infected with baculovirus (virus generated and amplified in Sf21 cells); used as a washed membrane preparation
Summary of the method: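 Hi-Five (T. ni) membranes overexpressing the STING variant (2.2 ug/ml working) preincubated with compound 60 min at RT in PBS, then [3H]cGAMP (8 nM working stock) added for 60 min at RT. Bound radioactivity captured on GF/B filters and counted by scintillation; EC50 from 4-parameter fit of control-normalized activity.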

T2 sequence (Q86WV6 with tags, fused parts or gaps R71H/G230A/H232R/R293Q): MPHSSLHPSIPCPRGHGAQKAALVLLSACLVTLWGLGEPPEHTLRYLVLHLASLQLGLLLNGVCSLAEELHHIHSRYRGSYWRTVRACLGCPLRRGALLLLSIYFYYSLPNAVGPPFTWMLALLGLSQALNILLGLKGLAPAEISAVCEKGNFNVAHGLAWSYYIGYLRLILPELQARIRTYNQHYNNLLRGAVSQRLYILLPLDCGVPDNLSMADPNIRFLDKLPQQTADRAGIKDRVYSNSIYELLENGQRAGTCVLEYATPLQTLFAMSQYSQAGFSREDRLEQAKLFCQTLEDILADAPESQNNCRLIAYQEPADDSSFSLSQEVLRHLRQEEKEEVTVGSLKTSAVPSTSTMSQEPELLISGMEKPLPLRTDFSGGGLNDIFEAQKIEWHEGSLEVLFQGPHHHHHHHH
T1 sequence (Q86WV6 with tags, fused parts or gaps H232R): as the sequence (Q86WV6 with tags, fused parts or gaps R71H/G230A/H232R/R293Q) above, with H71R, A230G, Q293R counted along it

`COc1cc2cc(C(=O)C[C@H](C)C(=O)O)sc2cc1OCCOc1ccc2sc(C(=O)CCC(=O)O)cc2c1` [Example 53, (S)-4-(6-(2-((2-(3-carboxypropanoyl)benzo[b]thiophen-5-yl)oxy)ethoxy)-5-methoxybenzo[b]thiophen-2-yl)-2-methyl-4-oxobutanoic acid] gave an EC50 (full-length WT STING) of 713 nM, an activation at 30 µM [1] of 23% and an EC50 (full-length HAQ STING) of 146 nM.

`COc1cc2sc(C(=O)C[C@H](C)C(=O)O)cc2cc1OCCCOc1c(OC)cc2sc(C(=O)C[C@H](C)C(=O)NS(C)(=O)=O)cc2c1F` [Example 179, (S)-4-(5-(3-((4-fluoro-6-methoxy-2-((S)-3-methyl-4-(methylsulfonamido)-4-oxobutanoyl)-benzo[b]thiophen-5-yl)oxy)propoxy)-6-methoxybenzo[b]thiophen-2-yl)-2-methyl-4-oxobutanoic acid] showed an EC50 (full-length WT STING) of 1 nM, an activation at 30 µM [1] of 79% and an EC50 (full-length HAQ STING) of 1 nM.

`COc1cc2sc(C(=O)CCC(=O)O)cc2cc1OCCOc1cc2cc(C(=O)CCC(=O)O)sc2cc1OC` [Example 38, 4,4′-((ethane-1,2-diylbis (oxy))bis(6-methoxybenzo [b]thiophene-5,2-diyl))bis(4-oxobutanoic acid)] gave an EC50 (full-length WT STING) of 1040 nM, an activation at 30 µM [1] of 17% and an EC50 (full-length HAQ STING) of 695 nM.

In the case of `COc1cc2sc(C(=O)C[C@H](C)C(=O)O)cc2cc1OCCCOc1c(OC)cc2sc(C(=O)CC(C)(C)C(=O)O)cc2c1F` [Example 71, (S)-4-(5-(3-((2-(3-carboxybutanoyl)-6-methoxybenzo[b]thiophen-5-yl)oxy)propoxy)-4-fluoro-6-methoxybenzo[b]thiophen-2-yl)-2,2-dimethyl-4-oxobutanoic acid], the EC50 (full-length WT STING) is reported as 2 nM, the activation at 30 µM [1] is reported as 15% and the EC50 (full-length HAQ STING) is reported as 3 nM.

For `COc1cc2sc(C(=O)CC(C)(C)C(=O)O)cc2c(F)c1OCCCOc1c(OC)cc2sc(C(=O)CC(C)(C)C(=O)O)cc2c1F` [Example 165, 4,4′-((propane-1,3-diylbis(oxy))bis(4-fluoro-6-methoxybenzo[b]thiophene-5,2-diyl))bis(2,2-dimethyl-4-oxobutanoic acid)], the EC50 (full-length WT STING) was 3 nM, the activation at 30 µM [1] was 21% and the EC50 (full-length HAQ STING) was 2 nM.

For `COc1cc2sc(CC[C@H](C)C(=O)O)cc2cc1OCCCOc1c(OC)cc2sc(C(=O)C[C@H](C)C(=O)O)cc2c1Br` [Example 146, (S)-4-(4-bromo-5-(3-((2-((S)-3-carboxybutyl)-6-methoxybenzo[b]thiophen-5-yl)oxy)propoxy)-6-methoxybenzo[b]thiophen-2-yl)-2-methyl-4-oxobutanoic acid], the inhibition at 2 µM (full-length WT STING; at 2,000 nM compound) was 18%, the activation at 3 µM [1] was 27% and the inhibition at 2 µM (full-length HAQ STING; at 2,000 nM compound) was 55%.

In the case of `COc1cc2sc(CC[C@H](C)C(=O)O)cc2c(F)c1OCCCOc1c(OC)cc2sc(C(=O)C[C@H](C)C(=O)O)cc2c1Cl` [Example 147, (S)-4-(5-(3-((2-((S)-3-carboxybutyl)-4-fluoro-6-methoxybenzo[b]thiophen-5-yl)oxy)propoxy)-4-chloro-6-methoxybenzo[b]thiophen-2-yl)-2-methyl-4-oxobutanoic acid], the EC50 (full-length WT STING) is reported as 207 nM, the activation at 3 µM [1] is reported as 71% and the EC50 (full-length HAQ STING) is reported as 18 nM.

In the case of `COc1cc2sc(C(=O)C[C@H](C)C(=O)O)cc2c(F)c1OCCC(C)Oc1c(OC)cc2sc(C(=O)C[C@H](C)C(=O)O)cc2c1F` (stereo partly drawn) [Example 138, (2S,2′S)-4,4′-((butane-1,3-diylbis(oxy))bis(4-fluoro-6-methoxybenzo[b]thiophene-5,2-diyl))bis(2-methyl-4-oxobutanoic acid)], the EC50 (full-length WT STING) is reported as 2 nM, the activation at 30 µM [1] is reported as 89% and the EC50 (full-length HAQ STING) is reported as 2 nM.

`COc1cc2cc(C(=O)C[C@H](C)C(=O)O)sc2cc1OCCCOc1c(OC)cc2sc(C(=O)[C@@H]3C[C@H]3C(=O)O)cc2c1F` [Example 90, trans-2-(5-(3-((2-((S)-3-carboxybutanoyl)-5-methoxybenzo[b]thiophen-6-yl)oxy)propoxy)-4-fluoro-6-methoxybenzo[b]thiophene-2-carbonyl)cyclopropane carboxylic acid] was tested, and the EC50 (full-length WT STING) was 978 nM, the activation at 30 µM [1] was 125% and the EC50 (full-length HAQ STING) was 58 nM.

Work on `COc1cc2sc(C(=O)C[C@H](C)C(=O)O)cc2c(Br)c1OCCCOc1c(OC)cc2sc(C(=O)C[C@H](C)C(=O)O)cc2c1Br` [Example 134, (2S,2′S)-4,4′-(5,5′-(propane-1,3-diylbis(oxy))bis(4-bromo-6-methoxybenzo[b]thiophene-5,2-diyl))bis(2-methyl-4-oxobutanoic acid)] yielded an EC50 (full-length WT STING) of 233 nM, an activation at 30 µM [1] of 89% and an EC50 (full-length HAQ STING) of 22 nM.

For `COc1cc2sc(C(=O)CCC(=O)O)cc2cc1CCCOc1cc2nc(C(=O)CCC(=O)O)sc2cc1OC` [Example 5, 4-(5-(3-(2-(3-carboxypropanoyl)-6-methoxybenzo [b]thiophen-5-yl)propoxy)-6-methoxybenzo[d]thiazol-2-yl)-4-oxobutanoic acid], the EC50 (full-length WT STING) was 381 nM, the activation at 30 µM [1] was 96% and the EC50 (full-length HAQ STING) was 84 nM.

`COc1cc2sc(C(=O)C[C@H](C)C(=O)O)cc2c(F)c1OCCCOc1c(OC)cc2sc(C(=O)[C@@H]3C[C@H]3C(=O)O)cc2c1F` [Example 86, trans-2-(5-(3-((2-((S)-3-carboxybutanoyl)-4-fluoro-6-methoxybenzo[b]thiophen-5-yl)oxy)propoxy)-4-fluoro-6-methoxybenzo[b]thiophene-2-carbonyl)cyclopropane carboxylic acid] was tested, and the EC50 (full-length WT STING) was 9 nM, the activation at 30 µM [1] was 131% and the EC50 (full-length HAQ STING) was 1 nM.

With `COc1cc2sc(CCC(C)(C)C(=O)O)cc2c(F)c1OCCCOc1c(OC)cc2sc(C(=O)[C@@H]3CC[C@H]3C(=O)O)cc2c1F` (relative stereo) [Example 141, trans-2-(5-(3-((2-(3-carboxy-3-methylbutyl)-4-fluoro-6-methoxybenzo[b]thiophen-5-yl)oxy)propoxy)-4-fluoro-6-methoxybenzo[b]thiophene-2-carbonyl)cyclobutane-1-carboxylic acid] the EC50 (full-length WT STING) was 219 nM, the activation at 30 µM [1] was 143% and the EC50 (full-length HAQ STING) was 24 nM.

Compound `COc1cc2sc(CCC(C)(C)C(=O)O)cc2c(F)c1OCCCOc1c(OC)cc2sc(C(=O)CC(C)(C)C(=O)O)cc2c1F` [Example 149, 4-(5-(3-((2-(3-carboxy-3-methylbutyl)-4-fluoro-6-methoxybenzo[b]thiophen-5-yl)oxy)propoxy)-4-fluoro-6-methoxybenzo[b]thiophen-2-yl)-2,2-dimethyl-4-oxobutanoic acid] has an EC50 (full-length WT STING) of 46 nM, an activation at 3 µM [1] of 70% and an EC50 (full-length HAQ STING) of 4 nM.

`COc1cc2sc(C(=O)C[C@H](C)C(=O)O)cc2cc1CCNc1cc2cc(C(=O)C[C@H](C)C(=O)O)sc2cc1OC` [Example 60, (2S)-4-{5-[2-({2-[(3S)-3-carboxybutanoyl]-6-methoxy-1-benzothiophen-5-yl}amino)ethyl]-6-methoxy-1-benzothiophen-2-yl}-2-methyl-4-oxobutanoic acid] was tested, and the EC50 (full-length WT STING) was 67 nM, the activation at 30 µM [1] was 106% and the EC50 (full-length HAQ STING) was 19 nM.

For `COc1cc2sc(C(=O)C[C@H](C)C(=O)O)cc2cc1OCCCCCCOc1c(OC)cc2sc(C(=O)C[C@H](C)C(=O)O)cc2c1F` [Example 111, (S)-4-(5-((6-((2-((S)-3-carboxybutanoyl)-4-fluoro-6-methoxybenzo[b]thiophen-5-yl)oxy)hexyl)oxy)-6-methoxybenzo[b]thiophen-2-yl)-2-methyl-4-oxobutanoic acid], the inhibition at 20 µM (full-length WT STING; at 20,000 nM compound) was 50%, the activation at 3 µM [1] was 45% and the EC50 (full-length HAQ STING) was 861 nM.

`COc1cc2sc(C(=O)C[C@H](C)C(=O)O)cc2c(F)c1OCCCOc1c(O)cc2sc(C(=O)C[C@H](C)C(=O)O)cc2c1F` [Example 188, (S)-4-(5-(3-((2-((S)-3-carboxybutanoyl)-4-fluoro-6-hydroxybenzo[b]thiophen-5-yl)oxy)propoxy)-4-fluoro-6-methoxybenzo[b]thiophen-2-yl)-2-methyl-4-oxobutanoic acid] showed an EC50 (full-length WT STING) of 1 nM, an activation at 3 µM [1] of 104% and an EC50 (full-length HAQ STING) of 1 nM.

For `COc1cc2sc(C(=O)C[C@H](C)C(=O)O)cc2cc1CCCOc1c(OC)cc2sc(C(=O)CCC(=O)O)cc2c1F` [Example 35, (S)-4-(5-(3-((2-(3-carboxypropanoyl)-4-fluoro-6-methoxybenzo[b]thiophen-5-yl)oxy)propyl)-6-methoxybenzo[b]thiophen-2-yl)-2-methyl-4-oxobutanoic acid], the EC50 (full-length WT STING) was 4 nM, the activation at 30 µM [1] was 80% and the EC50 (full-length HAQ STING) was 2 nM.

`COc1cc2sc(C[C@@H]3CC[C@H]3C(=O)O)cc2c(F)c1OCCCCOc1c(OC)cc2sc(C(=O)C[C@H](C)C(=O)O)cc2c1F` [Example 136, 2-((5-(4-((2-((S)-3-carboxybutanoyl)-4-fluoro-6-methoxybenzo[b]thiophen-5-yl)oxy)butoxy)-4-fluoro-6-methoxybenzo[b]thiophen-2-yl)methyl)cyclo-butanecarboxylic acid] gave an EC50 (full-length WT STING) of 10300 nM, an activation at 30 µM [1] of 37% and an EC50 (full-length HAQ STING) of 314 nM.
